Reference: patent publication US20100331248A1, “COMPOSITIONS AND METHODS FOR TREATING DIABETES USING LISOFYLLINE AND ISLET NEOGENESIS ASSOCIATED PEPTIDE” (DIAKINE THERAPEUTICS, INC., priority 2008, published 2010)
“Also recorded” adds a separate entry of the source. Read-outs that look alike come from different tables or passages of the source. Ends that are not written are not given here.

What was measured:
[1] = test system: non-obese diabetic (NOD) mice; conditions: LSF alone, when hyperglycemia became detectable; cited from earlier work
[2] = test system: NOD mice with spontaneous diabetes; test: Therapy regimen of LSF and INGAP in spontaneously diabetic NOD mice maintained on insulin pellets; format: in vivo; conditions: for blood glucose levels (non-fasting) at the end of treatments: FIG. 3, diabetic NOD mice, LSF 27 mg/kg/day continuous sc infusion, INGAP 500 μg qd ip; for remission rate of diabetes: FIG. 5, diabetic NOD mice observed after all therapy stopped
Description: The following example illustrates a therapy regimen (FIG. 1) involving INGAP peptide and LSF for building and preserving β-cell mass and increasing insulin production in a mammal. NOD mice were monitored for diabetes by measuring blood glucose levels. Mice were allowed to develop spontaneous diabetes, which usually occurs around the age of 18 weeks. Non-fasting blood glucose levels >250 mg/dL measured for 3 different days was considered evidence of diabetes onset. Shortly after diagnosing diabetes, the NOD mice received an insulin pellet implanted subcutaneously in order to maintain them during the treatment period of 6 to 7 weeks. The pellet provides 0.1 U/d of bovine insulin. The mice were then assigned to one of 5 treatment groups: Group 1—Normal saline via continuous subcutaneous infusion (placebo). The saline was delivered via an implantable subcutaneous osmotic mini-pump. The mice received the placebo for 4 weeks and continued on insulin for another 2 weeks. The insulin was then stopped, and the mice observed to determine if the treatment was effective. Group 2—LSF (27 mg/kg/day via continuous subcutaneous infusion) alone. The LSF was delivered via an implantable subcutaneous osmotic mini-pump. The mice received LSF for 4 weeks, continued on insulin for another 2 weeks, and then observed to determine if the treatment was effective. Group 3—INGAP (500 μg qd ip) alone. The mice received INGAP and insulin for 6 weeks, the treatment was then stopped, and the mice observed to determine if the treatment was effective. Group 4—LSF (27 mg/kg/day via continuous subcutaneous infusion) plus INGAP (500 μg qd ip) administered concomitantly. The LSF was delivered via an implantable subcutaneous osmotic mini-pump. The mice received LSF for 4 weeks and INGAP and insulin for 6 weeks. The treatments were then stopped and the mice observed to determine if the treatment was effective. Group 5—LSF (27 mg/kg/day via continuous subcutaneous infusion) for a week of pretreatment as monotherapy. Here the immune system was first treated to ‘cool it off’ so that any new islets would be growing in a less hostile environment. INGAP was then added to the treatment regimen (at 500 μg qd ip) and administered concomitantly with the LSF for an additional 5 weeks. LSF treatment was discontinued at week 6. INGAP and Insulin were continued for 1 more week until week 7. All therapy was then discontinued and the mice observed to determine if the treatment was effective. See treatment timeline depicted in FIG. 2.

[3] = cited from earlier work
[4] = test system: streptozotocin-induced diabetic mice; conditions: cited from earlier work

Row | Compound | reversal of autoimmune diabetes [1] | blood glucose levels (non-fasting) at the end of treatments [2] | remission rate of diabetes [2] | safety in clinical studies ([3]; clinical studies, open IND on file with FDA) | effect on islet formation and glycemia [4] | insulin production of treated animals ([2]; FIG. 15) | safety in clinical studies ([3]; in vivo)
1 | C[C@@H](O)CCCCn1c(=O)c2c(ncn2C)n(C)c1=O [LSF, 1-(5-R-hydroxyhexyl)-3,7-dimethylxanthine] | did not reverse | little or no effect | no remission; also recorded: No mice | safe | – | – | –
2 | IGLHDPSHGTLPNGS [INGAP] | – | little or no effect | 10% | – | restore euglycemia | producing insulin | safe
